From PubChem BioAssay (NCI)
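Values below derive from 48-hour exposures of cells grown in 96-well plates, with endpoints linearly interpolated between the two concentrations bracketing the appropriate inhibition level. GI50 is the concentration that inhibits growth by half. TGI: concentration producing complete growth inhibition.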

How the values were obtained:
Assay in all cases: DTP human tumour cell line panel, 48 h; in the data active = GI50 below about 0.43 µM; inactive = the rest
[1] = test system: HT29 colon
[2] = test system: RPMI-8226 leukemia
[3] = test system: LOX IMVI melanoma
[4] = test system: SK-MEL-5 melanoma
[5] = test system: SNB-19 CNS
[6] = test system: MALME-3M melanoma
[7] = test system: U251 CNS
[8] = test system: 786-0 renal
[9] = test system: SNB-75 CNS
[10] = test system: CAKI-1 renal
[11] = test system: SK-MEL-2 melanoma
[12] = test system: OVCAR-5 ovarian
[13] = test system: NCI-H522 lung
[14] = test system: UACC-257 melanoma
[15] = test system: MDA-MB-231 breast
[16] = test system: OVCAR-3 ovarian
[17] = test system: HCT-15 colon
[18] = test system: NCI-H226 lung
[19] = test system: DU-145 prostate
[20] = test system: HOP-62 NSCLC
[21] = test system: MCF7 breast
[22] = test system: A498 renal
[23] = test system: SK-OV-3 ovarian
[24] = test system: A549 NSCLC
[25] = test system: T-47D breast
[26] = test system: SF-539 CNS
[27] = test system: NCI-H23 lung
[28] = test system: HOP-92 NSCLC
[29] = test system: SW-620 colon
[30] = test system: MDA-MB-435
[31] = test system: NCI-H460 lung
[32] = test system: BT-549 breast
[33] = test system: HCT-116 colon
[34] = test system: TK-10 renal
[35] = test system: IGROV1 ovarian
[36] = test system: SF-268 CNS
[37] = test system: M14 melanoma
[38] = test system: MOLT-4 leukemia
[39] = test system: SK-MEL-28 melanoma
[40] = test system: ACHN renal
[41] = test system: HCC-2998 colon
[42] = test system: COLO 205 colon
[43] = test system: OVCAR-8 ovarian
[44] = test system: HS 578T breast
[45] = test system: MDA-MB-468 breast
[46] = test system: HL-60(TB) leukemia
[47] = test system: UACC-62 melanoma
[48] = test system: SN12C renal
[49] = test system: EKVX NSCLC
[50] = test system: RXF 393 renal
[51] = test system: SF-295 CNS
[52] = test system: SR leukemia
[53] = test system: KM12 colon
[54] = test system: CCRF-CEM leukemia
[55] = test system: UO-31 renal
[56] = test system: PC-3 prostate
[57] = test system: K-562 leukemia
[58] = test system: OVCAR-4 ovarian

COc1ccccc1[C@H]1C(C(=O)c2ccc(Cl)cc2)C2(N[C@@H]1c1ccccc1)C(=O)Nc1ccc(Cl)cc12 (stereo not given in full)
25.2 µM: TGI [46]
52.1 µM: TGI [22]
50.7 µM: TGI [2]
21.2 µM: TGI [3]
37.1 µM: TGI [28]
12.5 µM: TGI [15]
8.69 µM: TGI [47]
30.3 µM: TGI [26]
35.5 µM: TGI [8]
21.1 µM: TGI [6] | TGI [42]
5.51 µM: TGI [13]
34.2 µM: TGI [44]
13.8 µM: TGI [50]
16.2 µM: TGI [45]
43.8 µM: TGI [41]
10.6 µM: TGI [4]
18.6 µM: TGI [32]
26.6 µM: TGI [52]
> 57.5 µM: TGI [5] | TGI [7] | TGI [9] | TGI [10] | TGI [12] | TGI [14] | TGI [16] | TGI [17] | TGI [18] | TGI [19] | TGI [20] | TGI [21] | TGI [23] | TGI [24] | TGI [25] | TGI [27] | TGI [29] | TGI [33] | TGI [34] | TGI [35] | TGI [36] | TGI [37] | TGI [38] | TGI [39] | TGI [43] | TGI [49] | TGI [51] | TGI [53] | TGI [54] | TGI [55] | TGI [56] | TGI [57] | TGI [58]
13.6 µM: TGI [11]
8.94 µM: TGI [30]
inactive: GI50 [1] 1.73 µM | GI50 [2] 5.91 µM | GI50 [3] 1.72 µM | GI50 [4] 2.69 µM | GI50 [5] 14 µM | GI50 [6] 7.44 µM | GI50 [7] 2.86 µM | GI50 [8] 8.96 µM | GI50 [9] 2.27 µM | GI50 [10] 1.68 µM | GI50 [11] 4.08 µM | GI50 [12] 8.44 µM | GI50 [13] 1.3 µM | GI50 [14] 4.86 µM | GI50 [15] 1.36 µM | GI50 [16] 2.76 µM | GI50 [17] 6.98 µM | GI50 [18] 8.32 µM | GI50 [19] 2.56 µM | GI50 [20] 9.31 µM | GI50 [21] 2 µM | GI50 [22] 15.3 µM | GI50 [23] 5.17 µM | GI50 [24] 2.76 µM | GI50 [25] 4.61 µM | GI50 [26] 8.51 µM | GI50 [27] 8.68 µM | GI50 [28] 4.52 µM | GI50 [29] 4.28 µM | GI50 [30] 1.82 µM | GI50 [31] 2.32 µM | GI50 [32] 1.35 µM | GI50 [33] 2.13 µM | GI50 [34] 15.8 µM | GI50 [35] 9.15 µM | GI50 [36] 9.79 µM | GI50 [37] 3.55 µM | GI50 [38] 1.92 µM | GI50 [39] 16.7 µM | GI50 [40] 6.62 µM | GI50 [41] 9.77 µM | GI50 [42] 9.92 µM | GI50 [43] 7.52 µM | GI50 [44] 2.56 µM | GI50 [45] 1.38 µM | GI50 [46] 1.77 µM | GI50 [47] 1.72 µM | GI50 [48] 2.83 µM | GI50 [49] 8.12 µM | GI50 [50] 1.66 µM | GI50 [51] 3.43 µM | GI50 [52] 1.86 µM | GI50 [53] 8.36 µM | GI50 [54] 2.14 µM | GI50 [55] 2.26 µM | GI50 [56] 1.46 µM | GI50 [57] 1.78 µM | GI50 [58] 10.4 µM
7.91 µM: TGI [1]
13.5 µM: TGI [48]
53.7 µM: TGI [40]
